According to PubChem BioAssay AID328 (DTP/NCI, 2004):
Where “and” joins values, the source holds several entries; their conditions need not be identical. Identical values can stand only once. Inconclusive results and toxic doses are left out. How the source made its calls: active means survival T/C of 150% or more; inactive means T/C below 125% in these data.

System: BDF1 mice, P388 leukemia ip, median survival T/C
Assay: NCI In Vivo Anticancer Drug Screen. Data for tumor model P388 Leukemia (intraperitoneal) in B6D2F1 (BDF1) mice
Settings: endpoint: median survival time, higher = longer survival
Summary of the method: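 Read-out is survival of treated animals expressed relative to the vehicle group, as a T/C ratio.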

[1] = dose: 100.0 mg/kg/injection, schedule: Q04DX003 (ip), vehicle: saline with Tween-80
[2] = dose: 200.0 mg/kg/injection, schedule: Q04DX003 (ip), vehicle: saline with Tween-80
[3] = dose: 400.0 mg/kg/injection, schedule: Q04DX003 (ip), vehicle: saline with Tween-80
[4] = dose: 25.0 mg/kg/injection, schedule: Q01DX009 (ip), vehicle: saline with Tween-80
[5] = dose: 50.0 mg/kg/injection, schedule: Q01DX009 (ip), vehicle: saline with Tween-80
[6] = dose: 100.0 mg/kg/injection, schedule: Q01DX009 (ip), vehicle: saline with Tween-80
[7] = dose: 25.0 mg/kg/injection, schedule: Q01DX009 (ip), vehicle: saline
[8] = dose: 50.0 mg/kg/injection, schedule: Q01DX009 (ip), vehicle: saline
[9] = dose: 50.0 mg/kg/injection, schedule: Q04DX003 (ip), vehicle: saline
[10] = dose: 100.0 mg/kg/injection, schedule: Q01DX009 (ip), vehicle: saline
[11] = dose: 100.0 mg/kg/injection, schedule: Q04DX003 (ip), vehicle: saline
[12] = dose: 200.0 mg/kg/injection, schedule: Q01DX009 (ip), vehicle: saline
[13] = dose: 200.0 mg/kg/injection, schedule: Q04DX003 (ip), vehicle: saline
[14] = dose: 400.0 mg/kg/injection, schedule: Q01DX009 (ip), vehicle: saline
[15] = dose: 50.0 mg/kg/injection, schedule: Q04DX003 (ip), vehicle: saline sonified
[16] = dose: 100.0 mg/kg/injection, schedule: Q04DX003 (ip), vehicle: saline sonified
[17] = dose: 12.5 mg/kg/injection, schedule: Q01DX009 (ip), vehicle: saline with Tween-80
[18] = dose: 100.0 mg/kg/injection, schedule: Q01DX009 (ip), vehicle: Klucel (hydroxypropylcellulose) (HPC)
[19] = dose: 200.0 mg/kg/injection, schedule: Q01DX009 (ip), vehicle: Klucel (hydroxypropylcellulose) (HPC)

Measured: T/C

COc1ccc2c(c1)CCC1C2CCC2(C)C(=O)OC(=O)C12 (stereo not drawn)
inactive: dose: 87.5 mg/kg/injection, schedule: Q01DX009 (sc), vehicle: steriod suspending solution 91 % of control | dose: 100.0 mg/kg/injection, schedule: Q04DX003 (sc), vehicle: steriod suspending solution 100 % of control | dose: 175.0 mg/kg/injection, schedule: Q01DX009 (sc), vehicle: steriod suspending solution 100 % of control | dose: 200.0 mg/kg/injection, schedule: Q04DX003 (sc), vehicle: steriod suspending solution 109 % of control | dose: 350.0 mg/kg/injection, schedule: Q01DX009 (sc), vehicle: steriod suspending solution 95 % of control | dose: 400.0 mg/kg/injection, schedule: Q04DX003 (sc), vehicle: steriod suspending solution 95 % of control

O=C(Nc1cc(C(F)(F)F)ccc1Cl)c1ccccc1Cl
inactive: [1] 100 % of control | [2] 104 % of control | [3] 113 % of control

O=C(NCCc1ccccc1)Nc1ccccc1
inactive: dose: 75.0 mg/kg/injection, schedule: Q01DX009 (ip), vehicle: saline with Tween-80 95 % of control | dose: 150.0 mg/kg/injection, schedule: Q01DX009 (ip), vehicle: saline with Tween-80 104 % of control | dose: 300.0 mg/kg/injection, schedule: Q01DX009 (ip), vehicle: saline with Tween-80 109 % of control

S=c1c2[nH]cnc2ncn1CCSC1=NC=NC2=NC=NC21 (stereo not drawn)
inactive: [1] 100 % of control | [2] 95 % of control | [3] 109 % of control

O=c1[nH]c2ccc(I)cc2c(=O)o1
inactive: [1] 109 % of control | [2] 104 % of control | [3] 109 % of control

Clc1nc(NCc2ccccc2)c2cn[nH]c2n1
inactive: [4] 91 % of control | [5] 91 % of control | [6] 91 % of control

Cc1cc(N(C)C)cc(C)c1N=Nc1cc[n+]([O-])cc1
inactive: [5] 104 % of control | [6] 124 % of control

O=C(c1ccccc1)N1CCC(CCO)C(O)C1Cc1c[nH]c2ccccc12 (stereo not drawn)
inactive: [7] 100 % of control | [8] 96 % of control | [9] 96 % of control | [10] 86 % of control | [11] 100 % of control | [12] 108 % of control | [13] 96 % of control | [14] 110 % of control | dose: 400.0 mg/kg/injection, schedule: Q04DX003 (ip), vehicle: saline 98 % of control

COc1cc(N)ccc1C(=O)O
inactive: dose: 0.39 mg/kg/injection, schedule: Q01DX009 (ip), vehicle: saline 103 % of control | dose: 0.78 mg/kg/injection, schedule: Q01DX009 (ip), vehicle: saline 99 % of control | dose: 3.12 mg/kg/injection, schedule: Q01DX009 (ip), vehicle: saline 115 % of control | [8] 95 % of control | [10] 101 % of control | [12] 96 % of control | [14] 104 % of control

CC1(c2ccco2)NC(=O)N(Cl)C1=O (stereo not drawn)
inactive: [8] 89 % of control | [10] 98 % of control | [12] 105 % of control

O=C(O)c1cc2c(Br)cccc2c2cc(C(F)(F)F)ccc12
inactive: [15] 95 % of control | [16] 100 % of control | dose: 200.0 mg/kg/injection, schedule: Q04DX003 (ip), vehicle: saline sonified 100 % of control

O=C1CCCCCC2CC12 (stereo not drawn) (tested in a mixture with another compound)
inactive: dose: 100.0 mg/kg/injection, schedule: Q01DX001 (ip), vehicle: other 98 % of control | dose: 200.0 mg/kg/injection, schedule: Q01DX001 (ip), vehicle: other 103 % of control | dose: 400.0 mg/kg/injection, schedule: Q01DX001 (ip), vehicle: other 108 % of control

Cc1cc(O)c(C(c2ccccn2)c2c(O)cc(C)[nH]c2=O)c(=O)[nH]1
inactive: [17] 95 % of control | [4] 90 % of control | [5] 100 % of control

Cc1ccc(S(=O)(=O)OC2CCN(C)CC2)cc1
inactive: dose: 3.0 mg/kg/injection, schedule: Q04DX003 (ip), vehicle: saline 100 % of control | dose: 6.0 mg/kg/injection, schedule: Q04DX003 (ip), vehicle: saline 95 % of control | dose: 12.0 mg/kg/injection, schedule: Q04DX003 (ip), vehicle: saline 100 % of control | dose: 25.0 mg/kg/injection, schedule: Q04DX003 (ip), vehicle: saline 100 % of control

CC(=O)NC(CCCCNC(=O)OCc1ccccc1)C(=O)O (stereo not drawn)
inactive: dose: 50.0 mg/kg/injection, schedule: Q01DX005 (ip), vehicle: saline with Tween-80 90 % of control | dose: 100.0 mg/kg/injection, schedule: Q01DX005 (ip), vehicle: saline with Tween-80 93 % of control | dose: 200.0 mg/kg/injection, schedule: Q01DX005 (ip), vehicle: saline with Tween-80 89 % of control

CS(=O)(=O)n1c(CBr)nc2ccccc21
inactive: dose: 25.0 mg/kg/injection, schedule: Q04DX003 (ip), vehicle: saline sonified 109 % of control | [15] 118 % of control | [16] 122 % of control

CC1=CC(c2ccccc2)=CC(C)(C)C1 (tested in a mixture with another compound)
inactive: dose: 25.0 mg/kg/injection, schedule: Q01DX009 (ip), vehicle: saline sonified 104 % of control | dose: 50.0 mg/kg/injection, schedule: Q01DX009 (ip), vehicle: saline sonified 109 % of control | dose: 100.0 mg/kg/injection, schedule: Q01DX009 (ip), vehicle: saline sonified 109 % of control

CN(C1=NS(=O)(=O)N=C(N(C)c2ccccc2)O1)c1ccccc1
inactive: dose: 25.0 mg/kg/injection, schedule: Q01DX009 (ip), vehicle: Klucel (hydroxypropylcellulose) (HPC) 122 % of control | dose: 50.0 mg/kg/injection, schedule: Q01DX009 (ip), vehicle: Klucel (hydroxypropylcellulose) (HPC) 102 % of control | [5] 89 % of control | [18] 115 % of control | [6] 99 % of control | [19] 105 % of control

CCOC(=O)c1cnn(C(N)=S)c1N
inactive: [5] 90 % of control | dose: 50.0 mg/kg/injection, schedule: Q04DX003 (ip), vehicle: saline with Tween-80 104 % of control | dose: 66.0 mg/kg/injection, schedule: Q04DX003 (ip), vehicle: saline with Tween-80 104 % of control | [1] 90 % of control and 104 % of control | dose: 150.0 mg/kg/injection, schedule: Q04DX003 (ip), vehicle: saline with Tween-80 90 % of control | [2] 100 % of control

C=CCNc1ncnc2c1cnn2C
inactive: [7] 95 % of control and 104 % of control | [8] 109 % of control | [9] 118 % of control | [10] 104 % of control | [11] 109 % of control | [13] 90 % of control

O=C1CCCCCC1Cc1cc(O)c(CC2CCCCCC2=O)cc1O (stereo not drawn)
inactive: [5] 96 % of control | dose: 200.0 mg/kg/injection, schedule: Q01DX009 (ip), vehicle: saline with Tween-80 97 % of control

CCCCCCCCCCCCCC(C)NCc1ccccc1 (stereo not drawn)
inactive: dose: 3.13 mg/kg/injection, schedule: Q01DX009 (ip), vehicle: saline with Tween-80 95 % of control | dose: 6.25 mg/kg/injection, schedule: Q01DX009 (ip), vehicle: saline with Tween-80 100 % of control | [17] 100 % of control

O=C1c2ccccc2S(=O)(=O)N1CCN1C(=O)c2ccccc2S1(=O)=O
inactive: [18] 100 % of control | dose: 100.0 mg/kg/injection, schedule: Q04DX003 (ip), vehicle: Klucel (hydroxypropylcellulose) (HPC) 95 % of control | [19] 100 % of control | dose: 200.0 mg/kg/injection, schedule: Q04DX003 (ip), vehicle: Klucel (hydroxypropylcellulose) (HPC) 100 % of control | dose: 400.0 mg/kg/injection, schedule: Q01DX009 (ip), vehicle: Klucel (hydroxypropylcellulose) (HPC) 90 % of control | dose: 400.0 mg/kg/injection, schedule: Q04DX003 (ip), vehicle: Klucel (hydroxypropylcellulose) (HPC) 100 % of control
